Positions of bridges follow the written chain, without caps; N, C: chain ends. Residues, ends and D or L forms follow the SMILES beside them. No end group written: not given here.
Experiments:
Type in all cases: in vivo
[1] = test system: steroid-induced growth failure, male Crlj:WI (Wistar) rat; assay: Simultaneous combined administration test of various steroids and CNP derivative (A) in rats (Example 5); conditions: for Body length at dissection / Body length, variation from preadministration value (Δ value) / Body weight, variation from preadministration value (Δ value) / Right femur length at dissection / Tail length at dissection / Tail length, variation from preadministration value (Δ value) / Body weight at dissection: 1 mL/kg s.c. once a day 28 days, + medium or + CNP derivative (A) 1 mg/kg, n=5; for Body weight at dissection: 4-week-old male Wistar rat
Protocol: 0.3 mg/mL solution of dexamethasone (dexamethasone injection “KS”, available from Kyoritsuseiyaku Corporation diluted with saline), prednisolone succinate suspended in 0.1% polysorbate-containing brine (available from Wako Pure Chemical Industries, Ltd., concentration of 5 mg/mL as prednisolone), or betamethasone dipropionate suspended in 0.1% polysorbate-containing brine (available from Wako Pure Chemical Industries, Ltd., concentration of 0.3 mg/mL as betamethasone) was administered to the hypoderm of the back of a 4-week-old male Crlj:WI (Wistar) rat (ten animals for each set of substances) in a volume of 1 mL/kg once a day for 28 days. No substance was administered to the control group (5 animals, Group 1). At the same time, for five of ten animals in each set (Group 2, Group 4, Group 6) a medium (0.03 mol/L acetate buffer (pH 4.0)/1% benzyl alcohol/10% sucrose) and for the remaining five animals (Group 3, Group 5, Group 7) the medium and a 1 mg/mL solution of CNP derivative (A) were administered in combination in the hypoderm of the back in a volume of 1 mL/kg once a day for 28 days. After measuring the body weight, the body length and the tail length under isoflurane anesthesia on the day after the final day of administration, blood was collected from the abdominal aorta and the animal was caused to die, the right femur was extracted and the femur length was measured.

[2] = test system: rat growth failure induced by dexamethasone; assay: Action comparing study between CNP derivative (A) and human growth hormone on rat growth failure induced by dexamethasone (Example 6)
Protocol: Osmotic pumps (MINI-OSMOTIC PUMP Model 2004, available from DURECT CORPORATION, flow rate: 0.25 μL/hr, for 28 days) were charged with a 0.67 mg/mL solution of dexamethasone (dexamethasone injection “KS”, available from Kyoritsuseiyaku Corporation), and one osmotic pump was embedded in the hypoderm of the back of each 4-week-old male Crlj:WI (Wistar) rat (5 animals/group, Group 2 to Group 4, total of 15 animals). For Group 3, a 1 mg/mL solution of CNP derivative (A) (medium: 0.03 mol/L acetate buffer (pH 4.0)/1% benzyl alcohol/10% sucrose), and for Group 4, a 1 mg/mL solution of human-type growth hormone preparation (somatropin BS subcutaneous injection 10 mg “SANDOZ”) diluted with a phosphate buffer was administered to the hypoderm of the back of five rats, respectively, in a volume of 2 mL/kg once a day for 28 days. No substance was administered to the normal control group (5 animals, Group 1). On the final day, after measuring the body weight, the body length and the tail length, the blood was collected from the abdominal aorta and the animal was caused to die under isoflurane anesthesia, the left femur was extracted and the bone length was measured, and then a histopathological specimen of the epiphyseal region was prepared.

[3] = test system: dexamethasone-induced rat growth failure model; assay: Combined administration study of human-type CNP-53 or various CNP derivatives in dexamethasone-induced rat growth failure model (Example 3); conditions: for plasma cholesterol concentration and thymus weight vs single administration group of dexamethasone (in words): combined with dexamethasone, 28 days; for Plasma cholesterol concentration / thymus body weight ratio / thymus weight at dissection: dexamethasone 0.67 mg/mL pump alone or combined with 15 mg/mL pump of the CNP peptide, continuous s.c. 28 days, 5-week-old male Wistar rat, n=5
Protocol: Osmotic pumps (MINI-OSMOTIC PUMP Model 2004, available from DURECT CORPORATION, flow rate: 0.25 μL/hr, for 28 days) were charged with 0.67 mg/mL solution of dexamethasone (dexamethasone injection “KS”, available from Kyoritsuseiyaku Corporation) and one osmotic pump was embedded in the hypoderm of the back of each 5-week-old male Crlj:WI (Wistar) rat (5 animals/group, Groups 2 to 6, a total of 25 animals). At the same time, one osmotic pump (the same as above) charged with a 15 mg/mL solution of CNP derivative (A) in Group 3, human-type CNP-53 in Group 4, CNP derivative (B) in Group 5 and CNP derivative (C) in Group 6 was embedded in the hypoderm of the back simultaneously. No substance was administered to the normal control group (Group 1, 5 animals). Then the animals were fed for 28 days, and transitions of the body weight, the body length and the tail length were measured. On the final day, the blood was collected from the abdominal aorta and the animals were caused to die under isoflurane anesthesia, and plasma was separated from the collected blood and the cholesterol concentration was determined by using a “LabAssay (trademark) cholesterol” (available from Wako Pure Chemical Industries, Ltd.). After collecting the blood and causing the animals to die, the right femur and thymus were extracted, and the length of the right femur and the weight of the thymus were measured.

[4] = combined with dexamethasone, 28 days
[5] = dexamethasone 0.67 mg/mL pump alone or with CNP derivative (A) or human-type growth hormone 1 mg/mL, 2 mL/kg s.c. once a day 28 days, n=4 or 5

## CCC(=O)OCC(=O)[C@@]1(OC(=O)CC)[C@@H](C)C[C@H]2[C@@H]3CCC4=CC(=O)C=C[C@]4(C)[C@@]3(F)[C@@H](O)C[C@@]21C [Betamethasone, betamethasone dipropionate]
[1]; betamethasone 0.3 mg/mL
  Body length at dissection: 211 ± 2 mm
  Body length, variation from preadministration value (Δ value): (59 ± 5) mm
  Body weight, variation from preadministration value (Δ value): (208 ± 10) g
  Right femur length at dissection: 33.9 ± 0.5 mm
  Tail length at dissection: 213 ± 4 mm
  Tail length, variation from preadministration value (Δ value): (82 ± 3) mm
[1]; betamethasone dipropionate (0.3 mg/mL as betamethasone)
  Body weight at dissection: 315 ± 11 g
[1]; rat, in vivo, sc
  growth failure in rats by repeated administration of the steroid for 28 days (in words): induce growth failure

## human-type growth hormone: human-type growth hormone preparation, existing therapeutic drug for dwarfism
[2]; [4]
  elongation of the body length and the tail length vs dexamethasone-only administration group (in words): no significant difference
  left femur length on the final day vs dexamethasone-only administration group (in words): No significant difference
[2]; dexamethasone 0.67 mg/mL pump 28 days alone or with CNP derivative (A) or human-type growth hormone 1 mg/mL, 2 mL/kg s.c. once a day 28 days, 4-week-old male Wistar rat, mean ± SD, n=4 or 5
  Body weight at dissection: 255 ± 7 g
[2]; [5]
  Body length at dissection: 199 ± 5 mm
  Body length, variation from pre-administration value (Δ value): (44.8 ± 3.7) mm
  Body weight, variation from pre-administration value (Δ value): (149 ± 3) g
  Left femur length at dissection: 31.7 ± 0.6 mm
  Tail length at dissection: 199 ± 3 mm
  Tail length, variation from pre-administration value (Δ value): (66.8 ± 5.0) mm
[2]; histology, toluidine blue (FIG. 5), tendency, combinations compared with dexamethasone only
  growth plate cartilage layer of the epiphyseal region of the left femur (in words): swelling

## DLRVDTKSRAAWARLLQEHPNARKYKGANKKGLSKGCFGLKLDRIGSMSGLGC (disulfide 37-53) [human-type CNP-53]
[3]
  plasma cholesterol concentration and thymus weight vs single administration group of dexamethasone (in words): a clear difference was not observed
  Plasma cholesterol concentration: 62.1 ± 2.2 ^NS mg/dL
  thymus body weight ratio: [0.11 ± 0.01% ^NS]
  thymus weight at dissection: 0.33 ± 0.03 g

## C[C@]12C=CC(=O)C=C1CC[C@@H]1[C@@H]2[C@@H](O)C[C@@]2(C)[C@H]1CC[C@]2(O)C(=O)COC(=O)CCC(=O)O [prednisolone succinate]
[1]; prednisolone 5 mg/mL
  Body length at dissection: 209 ± 4 mm
  Body length, variation from preadministration value (Δ value): (58 ± 4) mm
  Body weight, variation from preadministration value (Δ value): (191 ± 14) g
  Right femur length at dissection: 33.3 ± 0.3 mm
  Tail length at dissection: 206 ± 6 mm
  Tail length, variation from preadministration value (Δ value): (79 ± 9) mm
[1]; prednisolone succinate (5 mg/mL as prednisolone)
  Body weight at dissection: 298 ± 14 g
[1]; s.c. once a day 28 days, body weight gain, body, tail and femur length, p<0.05 or 0.01
  growth failure in rats by repeated administration of the steroid for 28 days (in words): induce growth failure

## CC[C@H](C)[C@@H]1NC(=O)[C@H](CCCNC(=N)N)NC(=O)[C@H](CC(=O)O)NC(=O)[C@H](CC(C)C)NC(=O)[C@H](CCCCN)NC(=O)[C@H](CC(C)C)NC(=O)CNC(=O)[C@H](Cc2ccccc2)NC(=O)[C@@H](NC(=O)CNC(=O)[C@H](CCCCN)NC(=O)[C@H](CO)NC(=O)[C@H](CC(C)C)NC(=O)CNC(=O)[C@H](CCCCN)NC(=O)[C@H](CCCCN)NC(=O)[C@H](CC(N)=O)NC(=O)[C@H](C)NC(=O)CNC(=O)[C@H](CCCCN)NC(=O)[C@H](Cc2ccc(O)cc2)NC(=O)[C@H](CCCCN)NC(=O)[C@H](CCCNC(=N)N)NC(=O)[C@H](C)NC(=O)[C@H](CC(N)=O)NC(=O)[C@@H]2CCCN2C(=O)[C@H](Cc2c[nH]cn2)NC(=O)[C@H](CCC(=O)O)NC(=O)[C@H](CCC(N)=O)NC(=O)CNC(=O)[C@@H]2CCCN2)CSSC[C@@H](C(=O)O)NC(=O)CNC(=O)[C@H](CC(C)C)NC(=O)CNC(=O)[C@H](CO)NC(=O)[C@H](CCSC)NC(=O)[C@H](CO)NC(=O)CNC1=O [CNP derivative (B), Pro-Gly-CNP-37]
[3]
  plasma cholesterol concentration and thymus weight vs single administration group of dexamethasone (in words): a clear difference was not observed
  Plasma cholesterol concentration: 64.4 ± 0.8 ^NS mg/dL
  thymus body weight ratio: [0.14 ± 0.04%*]
  thymus weight at dissection: 0.42 ± 0.14 g

## CC[C@H](C)[C@@H]1NC(=O)[C@H](CCCNC(=N)N)NC(=O)[C@H](CC(=O)O)NC(=O)[C@H](CC(C)C)NC(=O)[C@H](CCCCN)NC(=O)[C@H](CC(C)C)NC(=O)CNC(=O)[C@H](Cc2ccccc2)NC(=O)[C@@H](NC(=O)CNC(=O)[C@H](CCCCN)NC(=O)[C@H](CO)NC(=O)[C@H](CC(C)C)NC(=O)CN)CSSC[C@@H](C(=O)N[C@H](C(=O)N[C@@H](CCC(N)=O)C(=O)N[C@@H](CCC(N)=O)C(=O)N[C@@H](CCCNC(=N)N)C(=O)N[C@@H](CCCCN)C(=O)N[C@@H](CCC(=O)O)C(=O)N[C@@H](CO)C(=O)N[C@@H](CCCCN)C(=O)N[C@@H](CCCCN)C(=O)N2CCC[C@H]2C(=O)N2CCC[C@H]2C(=O)N[C@@H](C)C(=O)N[C@@H](CCCCN)C(=O)N[C@@H](CC(C)C)C(=O)N[C@@H](CCC(N)=O)C(=O)N2CCC[C@H]2C(=O)N[C@@H](CCCNC(=N)N)C(=O)O)C(C)C)NC(=O)CNC(=O)[C@H](CC(C)C)NC(=O)CNC(=O)[C@H](CO)NC(=O)[C@H](CCSC)NC(=O)[C@H](CO)NC(=O)CNC1=O [CNP derivative (C), CNP (1-22) Ghrelin (12-28, SEQ ID NO: 8)] (H-GLSKGCFGLKLDRIGSMSGLGCVQQRKESKKPPAKLQPR-OH; disulfide 6-22)
[3]
  plasma cholesterol concentration and thymus weight vs single administration group of dexamethasone (in words): a clear difference was not observed
  Plasma cholesterol concentration: 59.2 ± 7.4 ^NS mg/dL
  thymus body weight ratio: [0.11 ± 0.02% ^NS]
  thymus weight at dissection: 0.35 ± 0.06 g

Source: patent US20170080049A1, “MEDICINE AGAINST GROWTH FAILURE INDUCED BY ADMINISTRATION OF STEROID” (DAIICHI SANKYO COMPANY, LIMITED, priority 2014, published 2017)
